This note sets out measurements from patent US20060073220A1, “Cinnamon extract enriched for polyphenols and methods of preparing same” (priority 2004, published 2006).

Converted amounts (≈) assume the structure as drawn. A value given as a limit tells only on which side of the number the result lay.

One experiment has as its system West Nile Virus. The experiment in a line: antiviral assay, West Nile Virus. The conditions noted are these: positive control, Vero cells. Format: cell-based.
Another experiment deals with Punta Toro A. Put plainly: antiviral assay, Punta Toro A. Format: cell-based, Punta Toro A virus.
Experiment [1] concerns RSV (respiratory syncytial virus). Put plainly: RSV (respiratory syncytial virus) assay. The format is cell-based.
In another experiment the test system is Influenza B. Put plainly: antiviral assay, Influenza B. The conditions noted are these: positive control, MDCK cells. The format is cell-based.
Another experiment relates to Adenovirus Type 1. The experiment in a line: antiviral assay, Adenovirus Type 1. Format: cell-based.
For experiment [2], the system named is PIV (parainfluenza virus). Put plainly: PIV (parainfluenza virus) assay. The format is cell-based.
The subject of a further experiment is Influenza A. Put plainly: Influenza A assay (strain not stated for the control). Format: cell-based, influenza A virus.
The subject of the next experiment is Rhinovirus Type 2. The experiment in a line: antiviral assay, Rhinovirus Type 2. Format: cell-based.
The subject of the next experiment is HSV-2. The experiment in a line: antiviral assay, HSV-2. Format: cell-based, Herpes simplex virus 2. The following applies: positive control, HHF cells.
In a further experiment the test system is HSV-1. The experiment in a line: antiviral assay, HSV-1. The following applies: positive control, HHF cells. Format: cell-based, Herpes simplex virus 1.

In the case of `NC(=O)c1ncn([C@@H]2O[C@H](CO)[C@@H](O)[C@H]2O)n1` [ribivarin], in the experiment on West Nile Virus, the “ED50 West Nile viral assay” value is 20 µg/mL (≈ 81.9 µM). In addition, in the experiment on Punta Toro A, the “ED50 Punta Toro A assay” value amounted to 20 µg/mL (≈ 81.9 µM). For the same compound, the “ED50 RSV assay” value in experiment [1] was 20 µg/mL (≈ 81.9 µM). Moreover, the “ED50 Influenza B assay” value in the experiment with Influenza B lay in the range of 2 to 3 µg/mL. In addition, in the experiment on Adenovirus Type 1, the “ED50 Adenovirus type 1 assay” value amounted to 10 µg/mL (≈ 40.9 µM). Besides, in experiment [2], the “ED50 PVI (parainfluenza virus) assay” value came to 20 µg/mL (≈ 81.9 µM). Further, the “ED50 Influenza A assay” value with Influenza A fell in the range of 2 to 3 µg/mL. Moreover, the “ED50 Rhinovirus assay” value in the experiment on Rhinovirus Type 2 is less than 1 µg/mL.

As for `Nc1nc2c(ncn2COCCO)c(=O)[nH]1` [acyclovir], the “ED50 HSV2 assay” value in the experiment with HSV-2 fell in the range of 1 to 2 µg/mL. The “ED50 HSV1 assay” value in the experiment on HSV-1 was in the range of 1 to 2 µg/mL.
